Results taken from patent US20060069132A1, “Azolecarboxamide herbicides” (priority 2004, published 2006).

Legend:
goosegrass = assay: Test C pre-/postemergence herbicide test; assay type: in vivo, Eleusine indica; conditions: preemergence
Summary of the method: (§1)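 Pre/post spray; non-phytotoxic solvent + surfactant. Post-timing 1–4 leaves, 2–18 cm. Read-out: visual % control vs untreated, day 12–14, greenhouse.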

corn = assay: Test C pre-/postemergence herbicide test; assay type: in vivo, Zea mays; conditions: preemergence
Summary of the method: as §1

yellow nutsedge = assay: Test C pre-/postemergence herbicide test; assay type: in vivo, Cyperus esculentus; conditions: preemergence
Summary of the method: as §1

lambsquarters = assay: Test C pre-/postemergence herbicide test; assay type: in vivo, Chenopodium album; conditions: preemergence
Summary of the method: as §1

Surinam grass = assay: Test C pre-/postemergence herbicide test; assay type: in vivo, Urochloa decumbens; conditions: preemergence
Summary of the method: as §1

morningglory = assay: Test C pre-/postemergence herbicide test; assay type: in vivo, Ipomoea coccinea; design: key to Plant response rating, Morningglory: 0 = no effect, 100 = complete control; conditions: preemergence
Summary of the method: as §1

barnyardgrass = assay: Test C flooded paddy test; assay type: in vivo, Echinochloa crus-galli; conditions: for Plant response rating, Barnyardgrass: 500 g ai/ha, visual rating after 12 to 14 days
Summary of the method: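 Ratings (0 = no effect, 100 = complete control) come from visual comparison with untreated plants after 12 to 14 days in the greenhouse. Treatment was postemergence at the 1- to 4-leaf stage (2–18 cm), or at the 2-leaf stage for the flooded paddy barnyardgrass.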

[1] = tested on: smallflower umbrella sedge; assay: Test C flooded paddy test; assay type: in vivo, Cyperus difformis; conditions: for Plant response rating, Sedge, Umbrella: 500 g ai/ha, visual rating after 12 to 14 days
soybean = assay: Test C pre-/postemergence herbicide test; assay type: in vivo, Glycine max; conditions: preemergence
Summary of the method: as §1

woolly cupgrass = assay: Test C pre-/postemergence herbicide test; assay type: in vivo, Eriochloa villosa; conditions: preemergence
Summary of the method: as §1

pigweed = assay: Test C pre-/postemergence herbicide test; assay type: in vivo, Amaranthus retroflexus; conditions: preemergence
Summary of the method: as §1

kochia = assay: Test C pre-/postemergence herbicide test; assay type: in vivo, Kochia scoparia; conditions: preemergence
Summary of the method: as §1

[2] = 125 g ai/ha, scale 0 (no effect) to 100 (complete control), visual, 12 to 14 days
[3] = 500 g ai/ha, scale 0 to 100 (0 no effect, 100 complete control), visual, 12 to 14 days
[4] = 62 g ai/ha, scale 0 to 100 (0 no effect, 100 complete control)
[5] = 125 g ai/ha, scale 0 to 100 (0 no effect, 100 complete control)
[6] = 250 g ai/ha, scale of 0 to 100, 0 is no effect, 100 is complete control
[7] = scale 0 to 100 (0 no effect, 100 complete control)

With `CCn1nc(C(C)(C)C)cc1C(=O)Nc1cc(C(=S)N(C)C)ccc1F` [Compound 294] the “Plant response rating, Goosegrass” value (goosegrass; 62 g ai/ha, scale 0 to 100) was 80, the “Plant response rating, Goosegrass” value (goosegrass; [2]) was 80 and the “Plant response rating, Goosegrass” value (goosegrass; 250 g ai/ha, scale 0-100) was 85. For the same compound, the “Plant response rating, Goosegrass” value (goosegrass; [3]) was 100, the “Plant response rating, Corn” value (corn; 62 g ai/ha, scale 0 to 100) was 55 and the “Plant response rating, Corn” value (corn; [2]) was 60. For the same compound, the “Plant response rating, Corn” value (corn; 250 g ai/ha, scale 0-100) was 60, the “Plant response rating, Corn” value (corn; [3]) was 80 and the “Plant response rating, Nutsedge, Yellow” value (yellow nutsedge; 62 g ai/ha, scale 0 to 100) was 50. For the same compound, the “Plant response rating, Nutsedge, Yellow” value (yellow nutsedge; [2]) was 55, the “Plant response rating, Nutsedge, Yellow” value (yellow nutsedge; 250 g ai/ha, scale 0-100) was 80 and the “Plant response rating, Nutsedge, Yellow” value (yellow nutsedge; [3]) was 90. For the same compound, the “Plant response rating, Lambsquarters” value (lambsquarters; 62 g ai/ha, scale 0 to 100) was 100, the “Plant response rating, Lambsquarters” value (lambsquarters; [2]) was 100 and the “Plant response rating, Lambsquarters” value (lambsquarters; 250 g ai/ha, scale 0-100) was 100. The “Plant response rating, Lambsquarters” value (lambsquarters; [3]) was 100, the “Plant response rating, Surinam Grass” value (Surinam grass; 62 g ai/ha, scale 0 to 100) was 85 and the “Plant response rating, Surinam Grass” value (Surinam grass; 250 g ai/ha, scale 0-100) was 100. The “Plant response rating, Surinam Grass” value (Surinam grass; [3]) was 100, the “Plant response rating, Morningglory” value (morningglory; 62 g ai/ha, scale 0 to 100) was 30 and the “Plant response rating, Morningglory” value (morningglory; [2]) was 30. For the same compound, the “Plant response rating, Morningglory” value (morningglory; 250 g ai/ha, scale 0-100) was 50, the “Plant response rating, Morningglory” value (morningglory; [3]) was 50 and the “Barnyardgrass plant response rating” value (barnyardgrass; [4]) was 75. The “Barnyardgrass plant response rating” value (barnyardgrass; [5]) was 90, the “Barnyardgrass plant response rating” value (barnyardgrass; [6]) was 95 and the “Plant response rating, Barnyardgrass” value (barnyardgrass; [7]) was 100. The “Sedge, Umbrella plant response rating” value ([1]; 62 g ai/ha, scale 0 to 100) was 80, the “Sedge, Umbrella plant response rating” value [1, 5] was 85 and the “Sedge, Umbrella plant response rating” value [1, 6] was 90. For the same compound, the “Plant response rating, Sedge, Umbrella” value [1, 7] was 90, the “Plant response rating, Soybean” value (soybean; 62 g ai/ha, scale 0 to 100) was 70 and the “Plant response rating, Soybean” value (soybean; 250 g ai/ha, scale 0-100) was 100. For the same compound, the “Plant response rating, Soybean” value (soybean; [3]) was 100, the “Plant response rating, Cupgrass, Woolly” value (woolly cupgrass; 62 g ai/ha, scale 0 to 100) was 55 and the “Plant response rating, Cupgrass, Woolly” value (woolly cupgrass; [2]) was 75. The “Plant response rating, Cupgrass, Woolly” value (woolly cupgrass; 250 g ai/ha, scale 0-100) was 80, the “Plant response rating, Cupgrass, Woolly” value (woolly cupgrass; [3]) was 85 and the “Plant response rating, Pigweed” value (pigweed; 62 g ai/ha, scale 0 to 100) was 100. For the same compound, the “Plant response rating, Pigweed” value (pigweed; [2]) was 100, the “Plant response rating, Pigweed” value (pigweed; 250 g ai/ha, scale 0-100) was 100 and the “Plant response rating, Pigweed” value (pigweed; [3]) was 100. For the same compound, the “Plant response rating, Kochia” value (kochia; 62 g ai/ha, scale 0 to 100) was 100, the “Plant response rating, Kochia” value (kochia; [2]) was 100 and the “Plant response rating, Kochia” value (kochia; 250 g ai/ha, scale 0-100) was 100. For the same compound, the “Plant response rating, Kochia” value (kochia; [3]) was 100.
For `CCn1nc(C2(C)CC2)cc1C(=O)Nc1cc(C(=O)N(C)C)ccc1F` [Compound 299], the “Plant response rating, Goosegrass” value (goosegrass; 62 g ai/ha, scale 0 to 100) was 100, the “Plant response rating, Goosegrass” value (goosegrass; [2]) was 100 and the “Plant response rating, Goosegrass” value (goosegrass; 250 g ai/ha, scale 0-100) was 100. For the same compound, the “Plant response rating, Goosegrass” value (goosegrass; [3]) was 100, the “Plant response rating, Corn” value (corn; [2]) was 25 and the “Plant response rating, Corn” value (corn; 250 g ai/ha, scale 0-100) was 60. For the same compound, the “Plant response rating, Corn” value (corn; [3]) was 60, the “Plant response rating, Nutsedge, Yellow” value (yellow nutsedge; 62 g ai/ha, scale 0 to 100) was 40 and the “Plant response rating, Nutsedge, Yellow” value (yellow nutsedge; [2]) was 50. For the same compound, the “Plant response rating, Nutsedge, Yellow” value (yellow nutsedge; 250 g ai/ha, scale 0-100) was 60, the “Plant response rating, Nutsedge, Yellow” value (yellow nutsedge; [3]) was 80 and the “Plant response rating, Lambsquarters” value (lambsquarters; 62 g ai/ha, scale 0 to 100) was 100. The “Plant response rating, Lambsquarters” value (lambsquarters; [2]) was 100, the “Plant response rating, Lambsquarters” value (lambsquarters; 250 g ai/ha, scale 0-100) was 100 and the “Plant response rating, Lambsquarters” value (lambsquarters; [3]) was 100. For the same compound, the “Plant response rating, Surinam Grass” value (Surinam grass; 62 g ai/ha, scale 0 to 100) was 75, the “Plant response rating, Surinam Grass” value (Surinam grass; 250 g ai/ha, scale 0-100) was 100 and the “Plant response rating, Surinam Grass” value (Surinam grass; [3]) was 100. The “Plant response rating, Morningglory” value (morningglory; 62 g ai/ha, scale 0 to 100) was 5, the “Plant response rating, Morningglory” value (morningglory; [2]) was 75 and the “Plant response rating, Morningglory” value (morningglory; 250 g ai/ha, scale 0-100) was 100. For the same compound, the “Plant response rating, Morningglory” value (morningglory; [3]) was 100, the “Barnyardgrass plant response rating” value (barnyardgrass; [4]) was 85 and the “Barnyardgrass plant response rating” value (barnyardgrass; [5]) was 85. The “Barnyardgrass plant response rating” value (barnyardgrass; [6]) was 95, the “Plant response rating, Barnyardgrass” value (barnyardgrass; [7]) was 95 and the “Sedge, Umbrella plant response rating” value ([1]; 62 g ai/ha, scale 0 to 100) was 85. For the same compound, the “Sedge, Umbrella plant response rating” value [1, 5] was 95, the “Sedge, Umbrella plant response rating” value [1, 6] was 95 and the “Plant response rating, Sedge, Umbrella” value [1, 7] was 95. For the same compound, the “Plant response rating, Soybean” value (soybean; 62 g ai/ha, scale 0 to 100) was 55, the “Plant response rating, Soybean” value (soybean; 250 g ai/ha, scale 0-100) was 90 and the “Plant response rating, Soybean” value (soybean; [3]) was 95. The “Plant response rating, Cupgrass, Woolly” value (woolly cupgrass; 62 g ai/ha, scale 0 to 100) was 50, the “Plant response rating, Cupgrass, Woolly” value (woolly cupgrass; [2]) was 70 and the “Plant response rating, Cupgrass, Woolly” value (woolly cupgrass; 250 g ai/ha, scale 0-100) was 90. For the same compound, the “Plant response rating, Cupgrass, Woolly” value (woolly cupgrass; [3]) was 100, the “Plant response rating, Pigweed” value (pigweed; 62 g ai/ha, scale 0 to 100) was 100 and the “Plant response rating, Pigweed” value (pigweed; [2]) was 100. For the same compound, the “Plant response rating, Pigweed” value (pigweed; 250 g ai/ha, scale 0-100) was 100, the “Plant response rating, Pigweed” value (pigweed; [3]) was 100 and the “Plant response rating, Kochia” value (kochia; 62 g ai/ha, scale 0 to 100) was 100. The “Plant response rating, Kochia” value (kochia; [2]) was 100, the “Plant response rating, Kochia” value (kochia; 250 g ai/ha, scale 0-100) was 100 and the “Plant response rating, Kochia” value (kochia; [3]) was 100.
